Laboratory results reported in patent publication US6933296B2, “Compounds effective as β2-adrenoreceptor agonists as well as PDE4-inhibitors” (Altana Pharma B.V., priority 2000, dated 2005).

Key:
[1] = system: PDE4; assay: Inhibition of PDE4 activity (cytosol from human neutrophils, [3H]cAMP hydrolysis); format: biochemical; conditions: 0.5 μM cAMP, Motapizone 1 μM, DMSO 0.5% for (some of) examples 1-19, 1% from example 20
Description: Method for Measuring Inhibition of PDE4 Activity
PDE4 activity was determined as described by Thompson et al. (Adv Cycl Nucl Res 10: 69-92, 1979) with some modifications (Bauer and Schwabe, Naunyn-Schmiedeberg's Arch Pharmacol 311: 193-198, 1980). At a final assay volume of 200 μl (96well microtiter plates) the assay mixture contained 20 mM Tris-HCl (pH 7.4), 5 mM MgCl2, 0.5 μM cAMP, [^3H]cAMP (about 30,000 cpm/assay), the test compound and an aliquot of cytosol from human neutrophils which mainly contains PDE4 activity as described by Schudt et al. (Naunyn-Schmiedeberg's Arch Pharmacol 344: 682-690, 1991); the PDE3-specific inhibitor Motapizone (1 μM) was included to suppress PDE3 activity originating from contaminating platelets.
To minimize problems with the solubility of the compounds, starting from example 20 serial dilutions of the compounds were prepared directly in DMSO and further diluted 1:100 (v/v) in the assays to obtain now the final concentrations of the inhibitors at a DMSO concentration of 1% (v/v) which by itself only slightly affected PDE4 activity.
After preincubation for 5 min at 37° C., the reaction was started by the addition of substrate (cAMP) and the assays were incubated for further 15 min at 37° C. 50 μl of 0.2 N HCl was added to stop the reaction and the assays were left on ice for about 10 min. Following incubation with 25 μg 5′-nucleotidase (Crotalus atrox snake venom) for 10 min at 37° C., the assays were loaded on QAE Sephadex A-25 (1 ml bed volume). The columns were eluted with 2 ml of 30 mM ammonium formiate (pH 6.0) and the eluate was counted for radioactivity. Results were corrected for blank values (measured in the presence of denatured protein) which were below 5% of total radioactivity. […] The IC50-values for the compounds according to the invention for the inhibition of the PDE4 activity were determined from the concentration-inhibition curves by nonlinear-regression.

[2] = system: human eosinophils; assay: Inhibition of C5a-stimulated chemiluminescence in human eosinophils; format: cell-based; conditions: 100 nM C5a, 100 nM salbutamol included as additional cAMP trigger; for IC30: Eosinophil, read-out: Inhibition of C5a-stimulated chemiluminescence [-logIC30 (mol/l)] (converted)
Description: c) Inhibition of C5a-stimulated Chemiluminescence in Human Eosinophils
Eosinophils were purified essentially as described in detail elsewhere (Hatzelmann A, Tenor H and Schudt C, Differential effects of non-selective and selective phosphodiesterase inhibitors on human eosinophil functions. Brit J Pharmacol 114: 821-831, 1995). Briefly, total granulocytes were first purified from blood (anticoagulated with 0.3% w/v sodium citrate) by dextran sedimentation, centrifugation on Ficoll Paque and hypotonic lysis of remaining red blood cells. For the further purification of the eosinophil fraction the magnetic cell separation (MACS) system from Miltenyi Biotec (Bergisch-Gladbach, Germany) was applied. Eosinophils were separated from neutrophils by negative selection using anti-CD16 microbeads in a two-step protocol using D- and BS-(formerly called B2-) separation columns. By this method human eosinophils with a purity of >99% and a viability of >97% were obtained.
The chemiluminescence (CL) assay was essentially performed as described (Hatzelmann et al., 1995). Briefly, measurements were performed in a “CL-buffer” (140 mM NaCl, 5 mM KCl, 1 mM MgCl2, 10 mM HEPES, pH 7.4) containing 1 mM CaCl2, 1 mg/ml glucose, 0.05% (w/v) BSA, 10 μM luminol and 4 μM microperoxidase (all values correspond to final concentrations in the assays) in a total volume of 0.5 ml at a cell concentration of 10^6 cells/ml. Aliquots (0.4 ml) of the cell suspension (containing luminol and microperoxidase) were preincubated for 5 min at 37° C. in the absence or presence of inhibitors (0.05 ml). Stock solutions of the inhibitors (10 mM) were prepared in DMSO and diluted 1:100 (v/v) in CL-buffer; subsequent dilutions were made in 1% DMSO/CL-buffer to achieve the final drug concentrations in the assays at a DMSO concentration of 0.1% (v/v) which by itself only weakly affected the CL response. […] After preincubation, the assays were transferred into a “Multi-biolumat LB 9505C” from Berthold (Wildbad, Germany) and stimulated by the addition of 0.05 ml C5a (dissolved in CL-buffer; 100 nM final concentration). CL was continuously recorded for 1 min (C5a) and the AUC (area under the curve) calculated. Inhibition of CL by the compounds under these conditions is given as −log IC30 (mol/l).

[3] = target: T1, β2-adrenoceptor (Cavia porcellus, UniProt Q8K4Z4); assay: β2-Adrenoceptor agonistic activity in isolated guinea-pig trachea (relaxation); format: cell-based; conditions: half-maximal relaxation of isolated guinea-pig trachea pre-treated with 3×10^−7 M RP 73401; for EC50: read-out: β2-Adrenoceptor agonistic affinity [-logEC50 (mol/l)] (converted)
T1 construct: Male guinea-pigs (350-450 g) were killed by a sharp blow on the head and exsanguination, after that the trachea was removed; from tissue; host or cells: isolated guinea-pig trachea (ring chains in organ bath)
T1 sequence (Q8K4Z4 whole entry): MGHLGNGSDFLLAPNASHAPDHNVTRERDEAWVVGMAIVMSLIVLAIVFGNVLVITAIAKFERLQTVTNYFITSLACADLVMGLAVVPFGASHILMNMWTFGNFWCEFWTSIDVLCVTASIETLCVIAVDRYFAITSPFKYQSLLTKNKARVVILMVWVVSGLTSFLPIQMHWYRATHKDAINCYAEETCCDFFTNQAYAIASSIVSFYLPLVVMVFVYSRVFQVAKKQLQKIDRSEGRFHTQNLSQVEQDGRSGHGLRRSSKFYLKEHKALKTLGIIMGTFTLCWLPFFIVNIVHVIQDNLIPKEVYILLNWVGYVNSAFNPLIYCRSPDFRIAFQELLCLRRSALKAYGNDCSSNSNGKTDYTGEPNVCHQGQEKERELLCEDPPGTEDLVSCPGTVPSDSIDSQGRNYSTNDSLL
Description: b) β2-Adrenoceptor Agonistic Activity in Isolated Guinea-pig Trachea
Male guinea-pigs (350-450 g) were killed by a sharp blow on the head and exsanguination, after that the trachea was removed. After clearing off adhering tissue the trachea was cut into single rings which were tied together forming up to six 4- to 5-ring chains which were suspended in 10-ml organ baths containing Krebs buffer of the following composition (mM): NaCl 118, KCl 5.2, CaCl2 1.9, MgSO4 0.56, NaH2PO4 0.8, NaHCO3 25.0, and glucose 11.1, maintained at 37° C. and continuously aerated with a mixture of 95% O2 and 5% CO2. The end of the chain was tied at the bottom of the tissue bath and connected to a force-displacement transducer (Type K-30, Hugo Sachs Elektronik, Germany) for the recording of isometric tension changes and then placed under 1.5 to 2 g of tension. After a 60 min equilibration period, during which time the preparations were repeatedly washed and the spontaneous contraction plateaud, each tracheal preparation was pre-treated with 3×10^−7 M of RP 73401 for total inhibition of PDE4, which caused relaxation of the tissue between 30 and 40% of maximum (Harris et al., 1989, JPET 251: 199-206). After stabilization of the relaxant response to RP 73401, the test drugs were administered in a cumulative manner (factor 3), each concentration remaining in contact with the trachea until the […] response reached a plateau, before addition of the next higher concentration. At the end of the test drug administration, which caused maximal relaxation the tissue (verified in control experiments for each test drug by additional administration of 10^−6 M (−)-isoprenaline), a high concentration of the β-adrenoceptor antagonist, dl-sotalol (3−6×10^−4 M), was additionally given to assess whether the relaxant response of the trachea to test compound was due to β2-adrenoceptor stimulation. dl-Sotalol nearly completely reversed the relaxation amplitude to the test compounds and was taken as evidence for their β2-adrenoceptor agonistic property. The relaxant response to test compound was expressed as percent determined between the relaxant amplitude after that reached by RP 73401 (0%) and the maximal relaxation obtained prior to dl-sotalol administration (100%). EC50 values for a half-maximal relaxation of the tissue by test compound were graphically interpolated from 12 to 16 individual concentration-response curve. The −log EC50 values (mol/l) thus obtained were taken as a measure for β2-adrenoceptor agonistic activity of the test compounds.

| Compound | Inhibition of PDE4 activity [-logIC50] [1] | melting point | IC30 [2] | EC50 [3] | Inhibition of C5a-stimulated chemiluminescence [-logIC30 (mol/l)] [2] | β2-Adrenoceptor agonistic affinity [-logEC50 (mol/l)] [3] |
| --- | --- | --- | --- | --- | --- | --- |
| COc1ccc(C2=NN(CCCCNCC(O)c3cc(Cl)c(N)c(Cl)c3)C(=O)[C@H]3CCCC[C@@H]23)cc1OC.O=C(O)/C=C/C(=O)O (relative stereo) [Compound 1, (cis)-2-(4-[{2-(4-amino-3,5-dichlorophenyl)-2-hydroxyethyl}-amino]-1-butyl)-4-(3,4-dimethoxyphenyl)-4a,5,6,7,8,8a-hexahydro-2H-phthalazin-1-one fumarate] | 6.97 | 85 to 88 °C | 3020 nM | 12.9 nM |  |  |
| COc1ccc(C2=NN(C3CCN(C(=O)CCCNCC(O)c4cc(Cl)c(N)c(C#N)c4)CC3)C(=O)[C@@H]3CC=CC[C@H]23)cc1OC.O=C(O)/C=C/C(=O)O (stereo partly drawn) [Compound 20, 2-Amino-3-chloro-5-[2-(4-{4-[(4aS,8aR)-4-(3,4-dimethoxy-phenyl)-1-oxo-4a,5,8,8a-tetrahydro-1H-phthalazin-2-yl]-piperidin-1-yl}-4-oxo-butylamino)-1-hydroxy-ethyl]-benzonitrile fumarate] | 10.2 |  | 79.4 nM | 2.29 nM |  |  |
| (cis)-2-(4-[{2-(4-amino-3-chloro-5-cyanophenyl)-2-hydroxyethyl}amino]-1-butyl)-4-(3,4-dimethoxyphenyl)-4a,5,8,8a-tetrahydro-2H-phthalazin-1-one hemifumarate [Compound 11] |  |  |  |  | 6.22 mol/l | 8.11 -log(mol/l) |
| (cis)-2-(5-[{2-(4-amino-3-chloro-5-cyanophenyl)-2-hydroxyethyl}amino]-1-pentyl)-4-(3,4-dimethoxyphenyl)-4a,5,8,8a-tetrahydro-2H-phthalazin-1-one hemifumarate [Compound 12] |  |  |  |  | 5.92 mol/l | 8.61 -log(mol/l) |
| (cis)-2-(6-[{2-(4-amino-3,5-dichlorophenyl)-2-hydroxyethyl}-amino]-1-hexyl)-4-(3,4-dimethoxyphenyl)-4a,5,6,7,8,8a-hexahydro-2H-phthalazin-1-one hemifumarate [Compound 2] |  |  |  |  | <5 mol/l | 6.86 -log(mol/l) |
| (cis)-2-(6-[{2-(4-amino-3,5-dichlorophenyl)-2-hydroxyethyl}-amino]-1-hexyl)-4-(3,4-dimethoxyphenyl)-4a,5,8,8a-tetrahydro-2H-phthalazin-1-one hemifumarate [Compound 6] |  |  |  |  | 6.00 mol/l | 7.60 -log(mol/l) |
| (cis)-2-(6-[{2-(4-amino-3-chloro-5-cyanophenyl)-2-hydroxyethyl}amino]-1-hexyl)-4-(3,4-dimethoxyphenyl)-4a,5,8,8a-tetrahydro-2H-phthalazin-1-one hemifumarate [Compound 13] |  |  |  |  | 6.52 mol/l | 6.91 -log(mol/l) |
| (cis)-2-(8-[{2-(4-amino-3,5-dichlorophenyl)-2-hydroxyethyl}-amino]-1-octyl)-4-(3,4-dimethoxyphenyl)-4a,5,6,7,8,8a-hexahydro-2H-phthalazin-1-one hemifumarate [Compound 3] |  |  |  |  | 6.52 mol/l | 6.77 -log(mol/l) |
| (cis)-4-(3,4-dimethoxyphenyl)-2-(6-[{2-(4-hydroxy-3-hydroxymethylphenyl)-2-hydroxyethyl}amino]-1-hexyl)-4a,5,6,7,8,8a-hexahydro-2H-phthalazin-1-one hemifumarate [Compound 14] |  |  |  |  | 5.30 mol/l | 7.24 -log(mol/l) |
